Test results as given in patent US7928103B2, “Compounds which modulate the CB2 receptor” (Boehringer Ingelheim International GmbH, priority 2006, dated 2011).

Columns and labels:
human CB2R [1] = target: T1, human CB2R (Homo sapiens, UniProt P34972); test: CB2R mediated modulation of cAMP synthesis; format: cell-based; design: host or cells: CHO cells; conditions: agonists decrease forskolin induced production of cAMP; CHO cells expressing human CB2R
Procedure: B. CB2R Mediated Modulation of cAMP Synthesis:
Compounds of the invention were evaluated for their CB2 agonist or inverse agonistic activity in accordance with the following experimental method.
CHO cells expressing human CB2R (Euroscreen) were plated at a density of 5000 cells per well in 384 well plates and incubated overnight at 37° C. After removing the media, the cells were treated with test compounds diluted in stimulation buffer containing 1 mM IBMX, 0.25% BSA and 10 uM Forskolin. The assay was incubated for 30 minutes at 37° C. Cells were lysed and the cAMP concentration was measured using DiscoverX-XS cAMP kit, following the manufacturer's protocol. In this setting, agonists will decrease forskolin induced production of cAMP while inverse agonists will further increase forskolin induced production of cAMP. EC50 of agonists were calculated as follows. The maximal amount of cAMP produced by forskolin compared to the level of cAMP inhibited by 1 uM CP55940 is defined as 100%. The EC50 value of each test compound was determined as the concentration at which 50% of the forskolin-stimulated cAMP synthesis was inhibited. Data was analyzed using a four-parameter logistic model. (Model 205 of XLfit 4.0).

human CB2R [2] = target: T1, human CB2R; test: Human CB2 receptor binding (3H-CP55940 competition, SPA); design: purchased Perkin Elmer Life and Analytical Sciences; host or cells: HEK293 EBNA cells, stably transfected; conditions: through the use of the above described assays (CB1/CB2 binding, CB2R and CB1R cAMP); assay not specified further
Procedure: A. Human CB1 and CB2 Receptor Binding:
CB2 membranes were purchased and made from HEK293 EBNA cells stably transfected with human CB2 receptor cDNA (Perkin Elmer Life and Analytical Sciences). CB1 membranes were isolated from HEK cells stably co-transfected with human CB1 receptor and Gα16 cDNA's. The membrane preparation was bound to scintillation beads (Ysi-Poly-L-lysine SPA beads, GE Healthcare) for 4 hours at room temperature in assay buffer containing 50 mM Tris, pH 7.5, 2.5 mM EDTA, 5 mM MgCl2, 0.8% fatty acid free Bovine Serum Albumin. Unbound membrane was removed by washing in assay buffer. Membrane-bead mixture was added to 96-well assay plates in the amounts of 15 ug membrane per well (CB2) or 2.5 ug per well (CB1) and 1 mg SPA bead per well. Compounds were added to the membrane-bead mixture in dose-response concentrations ranging from 1×10^−5 M to 1×10^−10 M with 0.25% DMSO, final. The competition reaction was initiated with the addition of ^3H-CP55940 (Perkin Elmer Life and Analytical Sciences) at a final concentration of 1.5 nM (CB2) or 2.5 nM (CB1). The reaction was incubated at room temperature for 18 hours and read on TopCount NXT plate reader. Total and non-specific binding was determined in the absence and presence of 1.25 uM Win 55212 (Sigma). IC50 values for each compound were calculated as the concentration of compound that inhibits the specific binding of the radioactively labeled ligand to the receptor by 50% using the XLFit 4.1 four parameter logistic model. IC50 values were converted to inhibition constant (Ki) values using Cheng-Prusoff equation.

T1 sequence (P34972 whole entry): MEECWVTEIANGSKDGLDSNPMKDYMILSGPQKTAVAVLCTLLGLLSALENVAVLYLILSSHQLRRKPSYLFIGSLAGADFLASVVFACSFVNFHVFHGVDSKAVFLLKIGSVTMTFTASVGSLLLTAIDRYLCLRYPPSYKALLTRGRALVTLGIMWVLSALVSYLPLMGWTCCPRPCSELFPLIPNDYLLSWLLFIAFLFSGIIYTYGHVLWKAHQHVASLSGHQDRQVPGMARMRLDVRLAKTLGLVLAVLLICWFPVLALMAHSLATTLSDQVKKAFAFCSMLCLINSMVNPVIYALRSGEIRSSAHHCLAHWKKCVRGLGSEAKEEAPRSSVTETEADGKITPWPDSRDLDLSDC

Row | SMILES | found to exhibit agonistic activity (human CB2R [1]) | found to exhibit activity (human CB2R [2])
1 | CCc1ccc(Nc2ccc(CN3CCO[C@@H](c4ccccc4)C3)cn2)cc1 [Example 5, (4-Ethyl-phenyl)-[5-((S)-2-phenyl-morpholin-4-ylmethyl)-pyridin-2-yl]-amine] | exhibit agonistic activity | exhibit activity
2 | c1ccc([C@H]2CN(Cc3ccc(Nc4cccc5cnccc45)nc3)CCO2)cc1 [Example 14, Isoquinolin-5-yl-[5-((S)-2-phenyl-morpholin-4-ylmethyl)-pyridin-2-yl]-amine] | exhibit agonistic activity | exhibit activity
3 | Cc1cccc(Nc2ccc(CN3CCO[C@@H](c4ccccc4)C3)cn2)c1 [Example 28, [5-((S)-2-Phenyl-morpholin-4-ylmethyl)-pyridin-2-yl]-m-tolyl-amine] | exhibit agonistic activity | exhibit activity
4 | c1ccc([C@H]2CN(Cc3ccc(Nc4ccncn4)nc3)CCO2)cc1 [Example 8, [5-((S)-2-Phenyl-morpholin-4-ylmethyl)-pyridin-2-yl]-pyrimidin-4-yl-amine] | exhibit agonistic activity | exhibit activity
5 | c1ccc([C@H]2CN(Cc3ccc(Nc4cnc5ccccc5c4)nc3)CCO2)cc1 [Example 11, [5-((S)-2-Phenyl-morpholin-4-ylmethyl)-pyridin-2-yl]-quinolin-3-yl-amine] | exhibit agonistic activity | exhibit activity
6 | FC(F)(F)Oc1ccccc1Nc1ccc(CN2CCO[C@@H](c3ccccc3)C2)cn1 [Example 32, [5-((S)-2-Phenyl-morpholin-4-ylmethyl)-pyridin-2-yl]-(2-trifluoromethoxy-phenyl)-amine] | exhibit agonistic activity | exhibit activity
7 | c1ccc(Nc2ccc(CN3CCO[C@@H](c4ccccc4)C3)cn2)cc1 [Example 15, Phenyl-[5-((S)-2-phenyl-morpholin-4-ylmethyl)-pyridin-2-yl]-amine] | exhibit agonistic activity | exhibit activity
8 | COc1ccc(Nc2ccc(CN3CCO[C@@H](c4ccccc4)C3)cn2)cc1 [Example 2, (4-Methoxy-phenyl)-[5-((S)-2-phenyl-morpholin-4-ylmethyl)-pyridin-2-yl]-amine] | exhibit agonistic activity | exhibit activity
9 | Clc1cccc(Nc2ccc(CN3CCO[C@@H](c4ccccc4)C3)cn2)c1Cl [Example 18, (2,3-Dichloro-phenyl)-[5-((S)-2-phenyl-morpholin-4-ylmethyl)-pyridin-2-yl]-amine] | exhibit agonistic activity | exhibit activity
10 | FC(F)(F)Oc1ccc(Nc2ccc(CN3CCO[C@@H](c4ccccc4)C3)cn2)cc1 [Example 4, [5-((S)-2-Phenyl-morpholin-4-ylmethyl)-pyridin-2-yl]-(4-trifluoromethoxy-phenyl)-amine] | exhibit agonistic activity | exhibit activity
11 | c1ccc([C@H]2CN(Cc3ccc(Nc4cccc5cccnc45)nc3)CCO2)cc1 [Example 13, [5-((S)-2-Phenyl-morpholin-4-ylmethyl)-pyridin-2-yl]-quinolin-8-yl-amine] | exhibit agonistic activity | exhibit activity
12 | Clc1ccc(Nc2ccc(CN3CCO[C@@H](c4ccccc4)C3)cn2)cc1Cl [Example 27, (3,4-Dichloro-phenyl)-[5-((S)-2-phenyl-morpholin-4-ylmethyl)-pyridin-2-yl]-amine] | exhibit agonistic activity | exhibit activity
13 | c1ccc([C@H]2CN(Cc3ccc(Nc4cccc5ccccc45)nc3)CCO2)cc1 [Example 6, Naphthalen-1-yl-[5-((S)-2-phenyl-morpholin-4-ylmethyl)-pyridin-2-yl]-amine] | exhibit agonistic activity | exhibit activity
14 | Fc1ccc(Nc2ccc(CN3CCO[C@@H](c4ccccc4)C3)cn2)cc1 [Example 29, (4-Fluoro-phenyl)-[5-((S)-2-phenyl-morpholin-4-ylmethyl)-pyridin-2-yl]-amine] | exhibit agonistic activity | exhibit activity
15 | CC(C)c1ccccc1Nc1ccc(CN2CCO[C@@H](c3ccccc3)C2)cn1 [Example 23, (2-Isopropyl-phenyl)-[5-((S)-2-phenyl-morpholin-4-ylmethyl)-pyridin-2-yl]-amine] | exhibit agonistic activity | exhibit activity
16 | c1ccc([C@H]2CN(Cc3ccc(Nc4cc5ccccc5cn4)nc3)CCO2)cc1 [Example 33, Isoquinolin-3-yl-[5-((S)-2-phenyl-morpholin-4-ylmethyl)-pyridin-2-yl]-amine] | exhibit agonistic activity | exhibit activity
17 | COc1ccccc1Nc1ccc(CN2CCO[C@@H](c3ccccc3)C2)cn1 [Example 21, (2-Methoxy-phenyl)-[5-((S)-2-phenyl-morpholin-4-ylmethyl)-pyridin-2-yl]-amine] | exhibit agonistic activity | exhibit activity
18 | Fc1ccccc1Nc1ccc(CN2CCO[C@@H](c3ccccc3)C2)cn1 [Example 16, (2-Fluoro-phenyl)-[5-((S)-2-phenyl-morpholin-4-ylmethyl)-pyridin-2-yl]-amine] | exhibit agonistic activity | exhibit activity
19 | CCOc1ccc(Nc2ccc(CN3CCO[C@@H](c4ccccc4)C3)cn2)cc1 [Example 3, (4-Ethoxy-phenyl)-[5-((S)-2-phenyl-morpholin-4-ylmethyl)-pyridin-2-yl]-amine] | exhibit agonistic activity | exhibit activity
20 | Cc1ccccc1Nc1ccc(CN2CCO[C@@H](c3ccccc3)C2)cn1 [Example 24, [5-((S)-2-Phenyl-morpholin-4-ylmethyl)-pyridin-2-yl]-o-tolyl-amine] | exhibit agonistic activity | exhibit activity
21 | Fc1cccc(Nc2ccc(CN3CCO[C@@H](c4ccccc4)C3)cn2)c1 [Example 25, (3-Fluoro-phenyl)-[5-((S)-2-phenyl-morpholin-4-ylmethyl)-pyridin-2-yl]-amine] | exhibit agonistic activity | exhibit activity
22 | c1ccc([C@H]2CN(Cc3ccc(Nc4ccncc4)nc3)CCO2)cc1 [Example 10, [5-((S)-2-Phenyl-morpholin-4-ylmethyl)-pyridin-2-yl]-pyridin-4-yl-amine] | exhibit agonistic activity | exhibit activity
23 | Clc1ccc(Nc2ccc(CN3CCO[C@@H](c4ccccc4)C3)cn2)c(Cl)c1 [Example 19, (2,4-Dichloro-phenyl)-[5-((S)-2-phenyl-morpholin-4-ylmethyl)-pyridin-2-yl]-amine] | exhibit agonistic activity | exhibit activity
24 | CCOc1ccccc1Nc1ccc(CN2CCO[C@@H](c3ccccc3)C2)cn1 [Example 22, (2-Ethoxy-phenyl)-[5-((S)-2-phenyl-morpholin-4-ylmethyl)-pyridin-2-yl]-amine] | exhibit agonistic activity | exhibit activity
25 | c1ccc(Oc2ccc(CN3CCO[C@@H](c4ccccc4)C3)cc2)cc1 [Example 34, (S)-4-(4-Phenoxy-benzyl)-2-phenyl-morpholine] | exhibit agonistic activity | exhibit activity
